“Also recorded” adds a separate entry of the source.
How the values were obtained:
Assay type in all cases: cell-based, human
EC sprouts and tubes = experiment: angiogenic sprouting assay (ECs invading from monolayer surface); details: for EC tube regression by signaling-mimicking drugs: Frax486 2.5 μM, vinblastine 100 nM, 24 hr
Experimental: (A) ECs were seeded onto a monolayer surface and then allowed to invade into the gels to form tubes over a 48 hr period. At this time, cultures were then treated with IL-1β or TNFα and in the absence or presence of FIST. Cultures were fixed after 24 hr, stained and photographed to visualize the monolayer surface and the underlying sprouts and tubes. (B) Cultures were established just like in A and then the Pak2 inhibitor, Frax486 (2.5 μM) or the microtubule depolymerizing agent, vinblastine (100 nM), were added to media in the presence or absence of FIST. Cultures were fixed after 24 hr, stained and photographed. Bar equals 200 μm.
Studies to define the factors and signals that promote endothelial cell (EC) lumen and tube formation, EC sprouting and EC-pericyte tube co-assembly have been performed under serum-free defined conditions so that the functional role of individual molecules that regulate these processes can be assessed. Disclosed herein, the factors that control capillary regression are defined. Capillary regression is a process that has been largely neglected despite the likelihood that it may present a fundamental pathogenic feature of major human diseases where capillary disassembly and regression are known to occur (i.e. hypertension, diabetes, ischemic disease in many tissues, neurodegenerative diseases, and malignant cancer). […] EC tube networks were allowed to form for 48 hr. (vasculogenesis type of assay) and then added these agents in dose-response experiments, showing that they potently induce EC tube regression (at low ng levels) (FIG. 1). Real-time movies were performed to visualize these pro-regressive activities. This experimental approach has utilized assays that mimic vasculogenesis or angiogenic sprouting and these factors induce regression equally well in both assay systems. […] These studies have been performed primarily in 3D collagen matrices, but the same result is also observed in 3D fibrin matrices.

EC tube networks [1] = experiment: 3D collagen EC tube regression assay; details: for effect of added HDAC6 inhibitor on pharmacologic rescue: 10 μM added to FISSB2, mediators 10 ng/ml, thrombin 1 μg/ml; for effect of added HDAC6 inhibitor on pharmacologic rescue / EC tube regression (pro-regressive activity): 24 hr; for EC tube regression in screen of growth factors and cytokines: 40 and 10 ng/ml, 48 hr EC tube networks; for EC tube regression (pro-regressive activity): factor added to established 48 hr EC tube networks
Experimental: (A) EC cultures with tube networks were established for 48 hr followed by the addition of indicated cytokines or thrombin (Thr) for 24 hr. IL-1β and IL-la were added at 1 ng/ml, TNFα at 3.16 ng/ml and thrombin at 1 μg/ml. Bars equal 100 or 200 μm. (B,C,D) EC tube networks were treated with the indicated cytokines and varying concentrations in dose-response analyses and in the presence or absence of thrombin added at 1 μg/ml. After 24 hr, cultures were fixed, stained and quantitated for EC lumen area per field. These curves are from a representative experiment using triplicate wells for each condition. The values (±SD) are derived from analyzed fields (n=15) where total lumen and tube area was measured. Asterisks indicate significance at p<0.05 compared to control and squares indicate significance at p<0.05 compared to the cytokine treatments alone.
ECs (passages 3-6) and pericytes (passages 3-12) were cultured as previously described^49,50. THP-1 cells were cultured in RPMI-1640-20% FCS. THP-1-T macrophages were differentiated for 72 hr. with 50 ng/ml of phorbol ester in RPMI-20% FCS, and then treated for 48 hr. in RPMI-2% FCS prior to adding TLR ligands. THP-1-VT macrophages were induced to differentiate for 72 hr. with 10^-7 M vitamin D3 (Calcitriol) in RPMI-20% FCS, followed by 48 hr. with phorbol ester in RPMI-2% FCS prior to adding TLR ligands.
(§1) ECs or ECs with pericytes were suspended in 3D collagen matrices and incubated at 37° C. in serum-free defined media as described^9,50,51. Recombinant factors or THP-1 conditioned media were added at the indicated doses to existing 48 or 72 hr. cultures with EC only or EC-pericyte tube networks, respectively. After 24 or 48 hr. for EC only or EC-pericyte tubes, respectively, cultures were fixed in 3% glutaraldehyde or 3% paraformaldehyde. EC tube areas were traced and quantitated as described. In some cases, neutralizing antibodies were added (10 μg/ml). For signaling experiments, lysates were prepared from control vs. regressing 3D cultures at different time points.

[2] = system: EC-pericyte tube networks; experiment: EC-pericyte co-culture regression assay; details: added to 72 hr co-cultures
Experimental: (A) EC-pericyte (GFP-labeled) co-cultures were established and allowed to form for 72 hr and at this time, the combination of IL-1β (10 ng/ml), TNFα (10 ng/ml) and thrombin (11 μg/ml) were added in combination compared to control and real-time movies were performed. Light and fluorescent image overlays over time are shown in representative fields. Arrowheads indicate clusters of pericytes that accumulate together during regression responses in response to these three factors in combination. After 48 hr, fixed cultures were stained for CD31 to detect ECs and fluorescence image overlays were performed. (B) The same set up was established as in A, except that each individual factor and combination of factors were added. After 48 hr, the cultures were fixed and stained for CD31. Confocal images were obtained, and fluorescence overlay images are shown.
(A) EC-pericyte co-cultures were established for 72 hr, and then were left untreated or with IL-1β (10 ng/ml), TNFα (10 ng/ml), and thrombin (11 μg/ml) in combination. After 48 hr, cultures were fixed and stained with CD31, confocal microscopy and 3D reconstruction of the images allowed for an upright and side view. (B) EC-pericyte tube networks were treated with the indicated single and combined factors and after fixation, EC tube area was quantitated. […] The values (±SD) were obtained from analyzed fields (n=15) where total lumen and tube area was measured. Asterisks indicate increased significance at p<0.05 compared to control, the squares indicate decreased significance at p<0.05 relative to the single factor conditions and the triangle indicates significance at p<0.05 relative to the double factor conditions. (C) EC-pericyte tube networks were treated with indicated combinations of factors. After 48 hr, total GFP fluorescence per well was quantitated as a measure of pericyte number since they are GFP-labeled. […] Asterisks indicate significance at p<0.05 compared to control.
as §1

EC tube networks [3] = experiment: Western blots of lysates from regressing 3D EC cultures (regression signaling signature); details: 24-hr. time course, compared to control EC tubes
Experimental: (A,B) ECs tube networks were treated with the indicated factors vs. control and at different time points, lysates were prepared from the 3D cultures. Western blots were performed using the different indicated antibodies. (C) Schematic illustrating findings that define a capillary regression signaling signature.
THP-T macrophages were treated with Pam3CSK4 (Pam) or LPS and conditioned medium was added at a 1:20 or 1:50 dilution, respectively, to EC tube networks. Control and IL10-treated cultures were compared with the conditioned medium treatments within the same experiment. At the indicated time points, lysates were obtained, and Western blots were performed with the indicated antibodies.
as §1

For `CCn1c(=O)c(-c2ccc(Cl)cc2Cl)cc2cnc(Nc3ccc(N4CCNCC4)c(F)c3)nc21` [Frax486, reference compound], the “EC tube regression by signaling-mimicking drugs” value (EC sprouts and tubes) was “led to marked regression”.

With `C[C@@H](N)[C@H]1CC[C@H](C(=O)Nc2ccncc2)CC1` [Y27632, reference compound] the “effect of adding drug to FISTSB on rescue” value (EC tube networks [1]; FISTSBY vs FISTSB) was “did not enhance the ability of FISTSB to rescue capillary regression”.

For `O=C(CCCCCCC(=O)Nc1ccc([C@H]2O[C@@H](CSc3nc(-c4ccccc4)c(-c4ccccc4)o3)C[C@@H](c3ccc(CO)cc3)O2)cc1)NO` [tubacin, reference compound], the “effect of added HDAC6 inhibitor on pharmacologic rescue” value (EC tube networks [1]) was “enhance the pharmacologic rescue of capillary regression induced by pro-inflammatory mediators”.

`CN1CCc2c(c3ccccc3n2Cc2ccc(C(=O)NO)cc2)C1` [tubastatin, reference compound] was tested, and the “effect of added HDAC6 inhibitor on pharmacologic rescue” value (EC tube networks [1]) was “enhance the pharmacologic rescue of capillary regression induced by pro-inflammatory mediators”.

`CC[C@]1(O)C[C@@H]2CN(CCc3c([nH]c4ccccc34)[C@@](C(=O)OC)(c3cc4c(cc3OC)N(C)[C@H]3[C@@](O)(C(=O)OC)[C@H](OC(C)=O)[C@]5(CC)C=CCN6CC[C@]43[C@@H]65)C2)C1` [vinblastine, reference compound] was tested, and the “EC tube regression by signaling-mimicking drugs” value (EC sprouts and tubes) was “led to marked regression”.

With IFNα the “EC tube regression in screen of growth factors and cytokines” value (“EC tube regression in screen” below) (EC tube networks [1]) was “did not have any activity”.

IFNγ: interferon gamma was tested, and the “EC tube regression in screen” value (EC tube networks [1]) was “demonstrated significantly increased regression at both doses”.

With “IL-1β: interleukin-1 beta, pro-inflammatory cytokine” the “degeneration of sprouts and EC monolayer” value (EC sprouts and tubes; angiogenic sprouting system) was “induce degeneration of the invading sprouts, but also the EC monolayer surface where the sprouts originated”, the “EC tube regression in screen” value (EC tube networks [1]) was “more potent pro-regressive factors than the other factors described herein” and the “EC tube regression (pro-regressive activity)” value (EC tube networks [1]) was “directly cause capillary tube collapse and regression”. The “EC tube regression in EC-pericyte co-cultures” value [2] was “marked tube regression in response to each factor individually and, also in combination”, the pericyte numbers [2] was “an increase in pericyte numbers” and the “ICAM-1 and VCAM-1 levels” value (EC tube networks [3]) was “Strong upregulation of ICAM-1 and VCAM-1”. For the same molecule, the “phospho-Pak2, phospho-cofilin, acetylated tubulin, procaspase3 levels” value (EC tube networks [3]) was “decreased levels of phospho-Pak2, phospho-cofilin, acetylated tubulin and procaspase3” and the “phospho-p38, phospho-JNK, phospho-MLC2 levels” value (EC tube networks [3]) was “increased levels of phospho-p38, phospho-JNK, and phospho-MLC2”.

“IL-6: cytokine co-induced in macrophages along with IL-1 and TNF” was tested, and the “EC tube regression (pro-regressive activity)” value (EC tube networks [1]) was “does not have pro-regressive activity; also recorded: had no regressive effect”.

IL-13: cytokine was tested, and the “EC tube regression in screen” value (EC tube networks [1]) was “demonstrated significantly increased regression at both doses”.

For TGFβ1: growth factor, the “EC tube regression in screen” value (EC tube networks [1]) was “demonstrated significantly increased regression at both doses”.

B1: IL-la: IL-1 isoform, pro-regressive cytokine (protein, UniProt P01583 113-271, looked up)
Interleukin-1 alpha: SAPFSFLSNVKYNFMRIIKYEFILNDALNQSIIRANDQYLTAAALHNLDEAVKFDMGAYKSSKDDAKITVILRISKTQLYVTAQDEDQPVLLKEMPEIPKTITGSETNLLFFWETHGTKNYFTSVAHPNLFIATKQDYWVCLAGGPPSITDFQILENQA
For B1, the “EC tube regression (pro-regressive activity)” value (EC tube networks [1]) was “directly cause capillary tube collapse and regression; also recorded: powerful ability to induce EC tube regression”.

B2: Light: pro-regressive factor identified in the cytokine screen (protein, UniProt O43557 83-240, looked up)
Tumor necrosis factor ligand …: LIQERRSHEVNPAAHLTGANSSLTGSGGPLLWETQLGLAFLRGLSYHDGALVVTKAGYYYIYSKVQLGGVGCPLGLASTITHGLYKRTPRYPEELELLVSQQSPCGRATSSSRVWWDSSFLGGVVHLEAGEKVVVRVLDERLVRLRDGTRSYFGAFMV
B2 was tested, and the “EC tube regression in screen” value (EC tube networks [1]) was “demonstrated significantly increased regression at both doses”.

B3: TGFβ2: growth factor (protein, UniProt P61812 303-414, looked up)
Transforming growth factor …: ALDAAYCFRNVQDNCCLRPLYIDFKRDLGWKWIHEPKGYNANFCAGACPYLWSSDTQHSRVLSLYNTINPEASASPCCVSQDLEPLTILYYIGKTPKIEQLSNMIVKSCKCS
For B3, the “EC tube regression in screen” value (EC tube networks [1]) was “demonstrated significantly increased regression at both doses”.

B4: IL-4: interleukin-4 (protein, UniProt P05112 25-153, looked up)
Interleukin-4: HKCDITLQEIIKTLNSLTEQKTLCTELTVTDIFAASKNTTEKETFCRAATVLRQFYSHHEKDTRCLGATAQQFHRHKQLIRFLKRLDRNLWGLAGLNSCPVKEANQSTLENFLERLKTIMREKYSKCSS
In the case of B4, the “EC tube regression in screen” value (EC tube networks [1]) is reported as “demonstrated significantly increased regression at both doses”.

B5: BMP-9: growth factor (protein, UniProt Q9UK05 320-429, looked up)
Growth/differentiation factor …: SAGAGSHCQKTSLRVNFEDIGWDSWIIAPKEYEAYECKGGCFFPLADDVTPTKHAIVQTLVHLKFPTKVGKACCVPTKLSPISVLYKDDMGVPTLKYHYEGMSVAECGCR
In the case of B5, the “EC tube regression in screen” value (EC tube networks [1]) is reported as “demonstrated significantly increased regression at both doses”.

B6: BMP-10: growth factor (protein, UniProt O95393 317-424, looked up)
Bone morphogenetic protein 10: NAKGNYCKRTPLYIDFKEIGWDSWIIAPPGYEAYECRGVCNYPLAEHLTPTKHAIIQALVHLKNSQKASKACCVPTKLEPISILYLDKGVVTYKFKYEGMAVSECGCR
In the case of B6, the “EC tube regression in screen” value (EC tube networks [1]) is reported as “demonstrated significantly increased regression at both doses”.
